ChEMBL document CHEMBL1212750, “Continuous clindamycin infusion, an innovative approach to treating bone and joint infections” (Antimicrob Agents Chemother, 2010)
Activity calls are given as the source filed them. The rule behind the calls is not given here.

Assays:
Serum [1] = assay: Drug level in bone/joint infection patient serum assessed as median concentration at 2400 mg, iv after 8 to 28 days; format: ADME, organism-based; conditions: human, in vivo
Staphylococcus aureus [2] = assay: Antimicrobial activity against Staphylococcus aureus infection in human assessed as curing from bone/joint infection at 600 mg, iv followed by 30 to 40 mg/kg of body weight, iv followed by oral regimen upto 30 months; format: functional, organism-based
Serum [3] = assay: Drug level in bone/joint infection patient serum assessed as median concentration at 2400 mg, iv after 3 to 14 days; format: ADME, organism-based; conditions: human, in vivo
[4] = Cmax po dosed in human co-treated with rifampin; format: ADME, organism-based; set-up: route oral; conditions: in vivo
Staphylococcus aureus [5] = assay: Antimicrobial activity against Staphylococcus aureus SJ11617; format: functional

Drug uptake (Serum [1]) | Drug uptake (Serum [3]) | Cmax [4] | MIC (Staphylococcus aureus [5]) | SMILES | Activity (Staphylococcus aureus [2])
6.2 mg/L | 5 mg/L | < 2500 ng/mL | – | CCC[C@@H]1C[C@@H](C(=O)N[C@@H]([C@H]2O[C@H](SC)[C@H](O)[C@@H](O)[C@H]2O)[C@H](C)Cl)N(C)C1 [CLINDAMYCIN] | Active
– | – | – | > 512 µg/mL | C[C@@H]1O[C@@H]1P(=O)(O)O [FOSFOMYCIN] | –
– | – | – | > 256 µg/mL | CC(=O)O[C@H]1C[C@@]2(C)[C@@H](C[C@@H](O)[C@H]3[C@@]4(C)CC[C@@H](O)[C@@H](C)[C@@H]4CC[C@@]32C)/C1=C(\CCC=C(C)C)C(=O)O [FUSIDIC ACID] | –
– | – | – | > 128 µg/mL | CO[C@H]1/C=C/O[C@@]2(C)Oc3c(C)c(O)c4c(O)c(c(/C=N/N5CCN(C)CC5)c(O)c4c3C2=O)NC(=O)/C(C)=C\C=C\[C@H](C)[C@H](O)[C@@H](C)[C@@H](O)[C@@H](C)[C@H](OC(C)=O)[C@@H]1C [RIFAMPIN] | –
